Where “and” joins values, the source holds several entries; their conditions need not be identical. Identical values can stand only once.
Experiments:
Assay in all cases: Test H postemergence mixture test of compound 39 with commercial herbicides, observed and Colby expected effect 0-100
Type in all cases: in vivo
Conditions in all cases: commercial herbicide alone, 14 days after treatment
[1] = test system: waterhemp (common waterhemp, AMATA, Amaranthus rudis)
Excerpt: (§1) This test evaluated the effect of mixtures of compound 39 with three commercial herbicides on five plant species. Seeds of plant species selected from corn (ZEAMD, Zea mays), soybean (GLXMA, Glycine max), palmer pigweed (AMAPA, Amaranthus palmeri), waterhemp (common waterhemp, AMATA, Amaranthus rudis), and Kochia (KCHSC, Kochia scoparia) were planted in pots containing Redi-Earth® planting medium (Scotts Company, 14111 Scottslawn Road, Marysville, Ohio 43041) comprising spaghnum peat moss, vermiculite, wetting agent and starter nutrients and treated with postemergence applications of test chemicals formulated in a non-phytotoxic solvent mixture which included a surfactant and applied using a volume of 299 L/ha. Each treatment was replicated four times. Treated plants and controls were maintained in a greenhouse using supplemental lighting to maintain a photoperiod of about 16 h; daytime and nighttime temperatures were about 24-30° C. and 19-21° C., respectively. Nutrients were applied using a balanced fertilizer applied through the watering system. At 14 days after treatment, all species were compared to controls and visually evaluated. Plant response ratings were calculated as the mean of the four replicates, are summarized in Tables H1 through H6, and are based on a scale of 0 to 100 where 0 is no effect and 100 is complete control. A dash (-) response means no test result.
(§2) Colby's Equation was used to determine the herbicidal effects expected from the mixtures. Colby's Equation (Colby, S. R. “Calculating Synergistic and Antagonistic Responses of Herbicide Combinations,” Weeds, 15(1), pp 20-22 (1967)) calculates the expected additive effect of herbicidal mixtures and for two active ingredients is of the form: Pa+b=Pa+Pb−(PaPb/100) • where • Pa+b is the percentage effect of the mixture expected from additive contribution of the individual components: • Pa is the observed percentage effect of the first active ingredient at the same use rate as in the mixture, and • Pb is the observed percentage effect of the second active ingredient at the same use rate as in the mixture. In the following Tables, rates are shown in grams of active ingredient per hectare (g a.i./ha); “Obsd.” is the observed effect. “Exp.” is the expected effect calculated from Colby's Equation.

corn (ZEAMD, Zea mays) = test system: corn (ZEAMD, Zea mays)
Excerpt: as §1, §2

[2] = test system: palmer pigweed (AMAPA, Amaranthus palmeri)
Excerpt: as §1, §2

[3] = test system: soybean (GLXMA, Glycine max)
Excerpt: as §1, §2

[4] = test system: Kochia (KCHSC, Kochia scoparia)
Excerpt: as §1, §2

Row | Structure (SMILES) | AMATA Obsd. (observed effect) ([1]; 4 g a.i./ha) | ZEAMD Obsd. (observed effect) (corn (ZEAMD, Zea mays); 4 g a.i./ha) | AMAPA Obsd. (observed effect) ([2]; 4 g a.i./ha) | GLXMA Obsd. (observed effect) ([3]; 4 g a.i./ha) | KCHSC Obsd. (observed effect) ([4]; 4 g a.i./ha) | AMATA Obsd. (observed effect) ([1]; 0.25 g a.i./ha) | AMATA Obsd. (observed effect) ([1]; 1 g a.i./ha) | ZEAMD Obsd. (observed effect) (corn (ZEAMD, Zea mays); 0.25 g a.i./ha) | ZEAMD Obsd. (observed effect) (corn (ZEAMD, Zea mays); 1 g a.i./ha) | AMAPA Obsd. (observed effect) ([2]; 0.25 g a.i./ha) | AMAPA Obsd. (observed effect) ([2]; 1 g a.i./ha) | GLXMA Obsd. (observed effect) ([3]; 0.25 g a.i./ha) | GLXMA Obsd. (observed effect) ([3]; 1 g a.i./ha) | KCHSC Obsd. (observed effect) ([4]; 0.25 g a.i./ha) | KCHSC Obsd. (observed effect) ([4]; 1 g a.i./ha)
1 | CS(=O)(=O)c1ccc(C(=O)C2C(=O)CCCC2=O)c([N+](=O)[O-])c1 [Mesotrione, mesotrione] | 79 and 92 | 0 | 78 and 72 | 64 and 62 | 79 and 72 |  |  |  |  |  |  |  |  |  | 
2 | COc1cc(OC)nc(NC(=O)NS(=O)(=O)c2ncccc2C(=O)N(C)C)n1 [Nicosulfuron, nicosulfuron] |  |  |  |  |  | 63 | 78 | 0 | 0 | 3 | 100 | 0 | 51 | 43 | 89
3 | CCOC(=O)c1ccccc1S(=O)(=O)NC(=O)Nc1nc(Cl)cc(OC)n1 [Chlorimuron-ethyl, chlorimuron-ethyl] |  |  |  |  |  | 77 | 76 | 0 | 33 | 65 | 86 | 0 | 0 | 88 | 97
